Experimental data taken from patent publication US8598132B2, “Glycosylated indolocarbazoles, method for obtaining same and uses thereof” (Universidad de Oviedo, priority 2008, dated 2013).

Assays:
[1] = target: T1, FGFR1 (Homo sapiens, UniProt P11362); experiment: LabChip (Caliper) kinase assay, FGFR1; format: biochemical; settings: for inhibition at 0.01 µM: compound at 10 nM; for inhibition at 0.01 µM / inhibition at 0.1 µM: read-out: remaining kinase activity (in %) / percentage of inhibition; for inhibition at 0.1 µM: compound at 100 nM; for IC50: ATP at Km, read-out: CI50 (the source's name)
T1 construct: purchased Upstate
T1 sequence (P11362 22-822, species assumed): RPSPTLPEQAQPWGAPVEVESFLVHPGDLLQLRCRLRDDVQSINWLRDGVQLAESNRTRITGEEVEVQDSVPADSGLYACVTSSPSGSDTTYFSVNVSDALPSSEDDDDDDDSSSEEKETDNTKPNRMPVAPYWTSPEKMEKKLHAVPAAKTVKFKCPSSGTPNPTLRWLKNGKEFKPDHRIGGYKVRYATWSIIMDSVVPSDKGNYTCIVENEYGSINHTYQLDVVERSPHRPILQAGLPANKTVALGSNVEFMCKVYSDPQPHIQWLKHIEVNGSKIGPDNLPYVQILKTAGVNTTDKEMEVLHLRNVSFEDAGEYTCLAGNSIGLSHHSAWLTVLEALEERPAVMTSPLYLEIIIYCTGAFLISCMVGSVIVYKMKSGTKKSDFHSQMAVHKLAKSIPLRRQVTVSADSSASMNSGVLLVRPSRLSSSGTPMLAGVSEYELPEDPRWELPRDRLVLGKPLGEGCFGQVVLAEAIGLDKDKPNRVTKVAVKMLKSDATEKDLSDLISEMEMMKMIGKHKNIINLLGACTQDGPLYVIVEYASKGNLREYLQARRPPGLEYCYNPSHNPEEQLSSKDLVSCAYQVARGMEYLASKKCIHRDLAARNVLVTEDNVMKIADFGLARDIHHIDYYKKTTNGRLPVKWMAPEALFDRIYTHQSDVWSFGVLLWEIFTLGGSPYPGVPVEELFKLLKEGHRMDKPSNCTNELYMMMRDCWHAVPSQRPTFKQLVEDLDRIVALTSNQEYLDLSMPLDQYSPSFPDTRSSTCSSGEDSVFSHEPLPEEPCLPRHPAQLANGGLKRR
Experimental: (§1) The analysis of kinase activity described here was performed using LabChip (Caliper Life Sciences), specifically the Caliper LC3000 and the EZ Reader II instruments.
(§2) The kinase assay used measures the conversion of a fluorescent peptide (substrate) to a phosphorylated product. The reaction mixture, in a microplate well, is introduced by a capillary in a chip where the non-phosphorylated substrate and the phosphorylated product are separated by […]. The intensity of the fluorescent signal over time is related to the reaction progress. The phosphorylated product migrates quicker than the non-phosphorylated substrate and the signals of the two forms of the peptide appear as differentiated peaks. The Caliper determines the peak height and calculates the ratio of product to the peak sum (P/(P+S)). This value is used to compare wells with compounds and wells with controls and thus determine the % of inhibition for the given product.
(§3) The followings kinases were used for the enzymatic inhibition studies, between brackets the value of the Michaelis-Menten constant, Km, of the ATP (Adenosine triphosphate) for each kinase, in μM: obtained from Carna Biosciences: MAPKAPK2 (4.6), AurA (3.6), AurB (5), PKCζ (3.8), RSK1 (23.3), PRAK (5), Erk1 (33.4), PKD2 (32.1), CK1d (16.3), CHK1 (33), ABL (61.7), FYN (36), LYNa (17), CHK2 (57.8), MET (79.5), LCK (28.5), SRC (38), GSK3β (7.3), Erk2 (62.1), PKACα (1.7), AKT2 (186.1), INSR (871.8), p38a (396.5), AKT1(48), MSK1 (21.2), PKCβ2 (84.8), ROCK2 (3.3), PIM2 (4.9), AMPK (38.6), KDR (164.8), IRAK4 (196.5), SGK1 (121.8), SYK (33.5); obtained from Invitrogen: CDK2 (57.6), BTK (123), HGK (80); obtained from Upstate: MST2 (36.6), PKGα (16), PAK2 (1.9), IGF1R (320), FGFR1 (171), MARK1 (33), CAMK2δ (22.4), c-TAK1 (66), DYRK1a (18.1), CaMK4 (3.9), FLT3 (350), c-Raf (6.2), P70S6K (95).
(§4) The compounds were dissolved in 100% DMSO and were diluted at 25 times the final concentration desired for the assay. In the case of the determination of Cl50, serial dilutions were made to reach eight concentrations and give rise to the inhibition curve. 1 μL of each concentration is transferred, in duplicate to a 384-well microplate. 12 μL of enzymatic buffer is added to each well containing purified kinase (several suppliers as indicated above), 100 mM HEPES, pH 7.5, 1 mM DTT (Calbiochem), 0.002% Brij-35 (Sigma) and also in presence of 10 mM MgCl2 as cofactor, except for INSR and IRAK4 wherein 10 mM MnCl2 is used instead of MgCl2. For the kinases CAMK26 and CAMK4, 1 mM CaCl2 and 6.7 μg/mL of calmodulin are also added. For KDR kinase, 0.05% of the CHAPSO detergent is added. For the c-Raf kinase, 10 mM MnCl2 is added. For PKCβ2 0.02 μg/mL of PS/PMA is added. For PKGα se 10 μM of cGMP (cyclic guanosine monophosphate) is added. The compound and the enzyme are left for 15 minutes preincubation and, then, the following are added to each well: 12 μL of peptide buffer/ATP containing 100 mM HEPES, pH 7.5, 1.5 μM peptide marker with fluorescein (specific for the corresponding kinase), ATP (at concentration KM), and 0.002% Brij-35 to start the reaction. Generally, the reactions are incubated for 1-1.5 h at ambient temperature to obtain an adequate conversion (15-40%) of the peptide to the phosphorylated product. The reactions were ended by the addition of 45 μL of buffer containing 0 mM EDTA. The microplates were read by the LabChip 3000 using a 12-channel LabChip. The P/(P+S) values were obtained as described above and the CI50 curves were generated using XIfit.
(§5) Table 9a has the 0150 data obtained in pairs of compound-kinase selected from the compounds of formula (VII), (VIII), (IX), (XVI), (XVII) and (XVIII) after taking inhibition measurements at 100 nM and 10 nM. Those couples that provide >70% of inhibition at 10 nM were consider for measuring its IC50. […]

[2] = target: T2, FLT3 (Homo sapiens, UniProt P36888); experiment: LabChip (Caliper) kinase assay, FLT3; format: biochemical; settings: for inhibition at 0.01 µM / inhibition at 0.1 µM: FLT3, read-out: remaining kinase activity (in %) / percentage of inhibition; for inhibition at 0.01 µM: compound at 10 nM; for inhibition at 0.1 µM: compound at 100 nM; for IC50: Ftl3, ATP at Km, read-out: CI50 (the source's name)
T2 construct: purchased Upstate
T2 sequence (P36888 27-993): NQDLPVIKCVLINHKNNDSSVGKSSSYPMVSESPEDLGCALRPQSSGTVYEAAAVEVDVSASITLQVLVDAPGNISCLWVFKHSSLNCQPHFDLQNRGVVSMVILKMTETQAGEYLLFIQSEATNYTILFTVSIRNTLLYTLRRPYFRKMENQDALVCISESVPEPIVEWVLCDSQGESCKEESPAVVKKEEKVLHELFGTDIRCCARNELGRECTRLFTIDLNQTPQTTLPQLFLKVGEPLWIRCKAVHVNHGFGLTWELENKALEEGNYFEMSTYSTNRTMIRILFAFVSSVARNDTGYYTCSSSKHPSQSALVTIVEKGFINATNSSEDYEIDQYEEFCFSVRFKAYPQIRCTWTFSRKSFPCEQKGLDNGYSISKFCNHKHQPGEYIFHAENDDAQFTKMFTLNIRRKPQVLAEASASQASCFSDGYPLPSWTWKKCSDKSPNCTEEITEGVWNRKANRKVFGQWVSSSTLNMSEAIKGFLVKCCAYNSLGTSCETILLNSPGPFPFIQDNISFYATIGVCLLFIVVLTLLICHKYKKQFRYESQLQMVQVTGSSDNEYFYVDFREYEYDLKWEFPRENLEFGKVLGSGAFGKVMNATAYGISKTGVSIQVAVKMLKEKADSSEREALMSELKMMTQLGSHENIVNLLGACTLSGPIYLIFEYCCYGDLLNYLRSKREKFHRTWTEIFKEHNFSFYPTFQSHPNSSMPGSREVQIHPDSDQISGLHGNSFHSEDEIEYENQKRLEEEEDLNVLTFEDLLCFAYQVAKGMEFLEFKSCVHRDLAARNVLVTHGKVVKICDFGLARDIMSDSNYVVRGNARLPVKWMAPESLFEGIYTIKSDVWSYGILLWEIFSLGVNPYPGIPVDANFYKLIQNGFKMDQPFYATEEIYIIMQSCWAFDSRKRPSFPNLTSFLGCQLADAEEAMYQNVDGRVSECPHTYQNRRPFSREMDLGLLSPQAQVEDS
Experimental: as §1, §2, §3, §4, §5

SMILES: C[C@@H]1O[C@@H](n2c3ccccc3c3c4c(c5c6ccccc6[nH]c5c32)C(=O)NC4=O)[C@H](O)[C@H](O)[C@H]1O [formula (III), N^13-1′-β-L-rhamnosylarcyriaflavin]
- inhibition at 0.01 µM [1]: 3%
- inhibition at 0.1 µM [1]: 4%
- inhibition at 0.01 µM [2]: -10%
- inhibition at 0.1 µM [2]: 25%

SMILES: C[C@@H]1O[C@@H](n2c3ccccc3c3c4c(c5c6ccccc6[nH]c5c32)C(=O)NC4=O)C[C@H](O)[C@H]1O [formula (IV), N^13-1′-β-L-olivosylarcyriaflavin]
- inhibition at 0.01 µM [1]: 3%
- inhibition at 0.1 µM [1]: 21%
- inhibition at 0.01 µM [2]: 20%
- inhibition at 0.1 µM [2]: 81%

SMILES: C[C@]12O[C@H](C[C@@H](O)[C@H]1O)n1c3ccccc3c3c4c(c5c6ccccc6n2c5c31)C(=O)NC4=O [formula (IX), N^12-5′(S)-N^13-1′-(R)-L-digitoxosylarcyriaflavin]
- IC50 [1]: > 10 nM
- IC50 [2]: 0.43 nM

SMILES: C[C@@H]1O[C@@H](n2c3ccccc3c3c4c(c5c6ccccc6[nH]c5c32)C(=O)NC4=O)C[C@@H](O)[C@H]1O [formula (V), N^13-1′-β-L-digitoxosylarcyriaflavin]
- inhibition at 0.01 µM [1]: 7%
- inhibition at 0.1 µM [1]: 34%
- inhibition at 0.01 µM [2]: 63%
- inhibition at 0.1 µM [2]: 95%

SMILES: C[C@H]1O[C@@H](n2c3ccccc3c3c4c(c5c6ccccc6[nH]c5c32)C(=O)NC4=O)C[C@@H](O)[C@@H]1O [formula (VI), N^13-1′-β-D-olivosylarcyriaflavin]
- inhibition at 0.01 µM [1]: 1%
- inhibition at 0.1 µM [1]: 25%
- inhibition at 0.01 µM [2]: 51%
- inhibition at 0.1 µM [2]: 98%

SMILES: C[C@]12O[C@H]([C@H](O)[C@H](O)[C@H]1O)n1c3ccccc3c3c4c(c5c6ccccc6n2c5c31)C(=O)NC4=O [formula (VII), N^12-5′(S)-N^13-1′-(R)-L-rhamnosylarcyriaflavin]
- IC50 [1]: 8.9 nM
- IC50 [2]: 0.57 nM

SMILES: C[C@]12O[C@H](C[C@H](O)[C@H]1O)n1c3ccccc3c3c4c(c5c6ccccc6n2c5c31)C(=O)NC4=O [formula (VIII), N^12-5′(S)-N^13-1′-(R)-L-olivosylarcyriaflavin]
- IC50 [2]: 0.56 nM

SMILES: C[C@@H]1O[C@@H](n2c3ccccc3c3c4c(c5c6ccccc6[nH]c5c32)CNC4=O)[C@H](O)[C@H](O)[C@H]1O [formula (XII), N^13-1′-β-L-rhamnosyl-k252c]
- inhibition at 0.01 µM [1]: 1%
- inhibition at 0.1 µM [1]: 5%
- inhibition at 0.01 µM [2]: -7%
- inhibition at 0.1 µM [2]: 35%

SMILES: C[C@@H]1O[C@@H](n2c3ccccc3c3c4c(c5c6ccccc6[nH]c5c32)CNC4=O)C[C@H](O)[C@H]1O [formula (XIII), N^13-1′-β-L-olivosyl-k252c]
- inhibition at 0.01 µM [1]: -1%
- inhibition at 0.1 µM [1]: 7%
- inhibition at 0.01 µM [2]: 34%
- inhibition at 0.1 µM [2]: 89%

SMILES: C[C@@H]1O[C@@H](n2c3ccccc3c3c4c(c5c6ccccc6[nH]c5c32)CNC4=O)C[C@@H](O)[C@H]1O [formula (XIV), N^13-1′-β-L-digitoxosyl-k252c]
- inhibition at 0.01 µM [1]: 1%
- inhibition at 0.1 µM [1]: 5%
- inhibition at 0.01 µM [2]: 20%
- inhibition at 0.1 µM [2]: 79%

SMILES: C[C@H]1O[C@@H](n2c3ccccc3c3c4c(c5c6ccccc6[nH]c5c32)CNC4=O)C[C@@H](O)[C@@H]1O [formula (XV), N^13-1′-β-D-olivosyl-k252c]
- inhibition at 0.01 µM [1]: -2%
- inhibition at 0.1 µM [1]: 7%
- inhibition at 0.01 µM [2]: 76%
- inhibition at 0.1 µM [2]: 106%

SMILES: C[C@]12O[C@H]([C@H](O)[C@H](O)[C@H]1O)n1c3ccccc3c3c4c(c5c6ccccc6n2c5c31)CNC4=O [formula (XVI), N^12-5′(S)-N^13-1′-(R)-L-rhamnosyl-k252c]
- IC50 [2]: 0.59 nM

SMILES: C[C@]12O[C@H](C[C@H](O)[C@H]1O)n1c3ccccc3c3c4c(c5c6ccccc6n2c5c31)CNC4=O [formula (XVII), N^12-5′(S)-N^13-1′-(R)-L-olivosyl-k252c]
- IC50 [1]: > 10 nM
- IC50 [2]: 0.54 nM

SMILES: C[C@]12O[C@H](C[C@@H](O)[C@H]1O)n1c3ccccc3c3c4c(c5c6ccccc6n2c5c31)CNC4=O [formula (XVIII), N^12-5′(S)-N^13-1′-(R)-L-digitoxosyl-k252c]
- IC50 [1]: > 100 nM
